Tested on: human lymphoblastoid TK6 cells, thymidine kinase gene
Assay: TK gene mutation assay (TK6 assay, OECD TG490)
Settings: for MF: graph data
[1] = 24 h treatment, -S9 mix, 173.70 μg/mL
[2] = 24 h treatment, -S9 mix, 277.90 μg/mL
[3] = 24 h treatment, -S9 mix, 444.70 μg/mL
[4] = 24 h treatment, -S9 mix, 711.5 μg/mL
[5] = 24 h treatment, -S9 mix, 1138.4 μg/mL
[6] = 24 h treatment, -S9 mix, 1821.4 μg/mL
[7] = Long-term treatment without metabolic activation
[8] = Short treatment, +S9 mix, dose 173.7 μg/mL
[9] = Short treatment, +S9 mix, dose 277.9 μg/mL
[10] = Short treatment, +S9 mix, dose 445 μg/mL
[11] = Short treatment, +S9 mix, dose 712 μg/mL
[12] = Short treatment, +S9 mix, dose 1138 μg/mL
[13] = Short treatment, +S9 mix, dose 1821 μg/mL
[14] = Short treatment, -S9 mix, dose 173.70 μg/mL
[15] = Short treatment, -S9 mix, dose 277.90 μg/mL
[16] = Short treatment, -S9 mix, dose 444.70 μg/mL
[17] = Short treatment, -S9 mix, dose 711.5 μg/mL
[18] = Short treatment, -S9 mix, dose 1138.4 μg/mL
[19] = Short treatment, -S9 mix, dose 1821.4 μg/mL

Nc1cc([N+](=O)[O-])ccc1C(=O)O [4-Nitroanthranilic acid]
TK6 assay result (mutant frequency increase, judgment) (4h treatment (+S9)): no increase in mutation frequency | TK6 assay result (mutant frequency increase, judgment) (4h treatment (+S9), listed as 4-nitroanthranilic acid): negative | TK6 assay result (mutant frequency increase, judgment) (4h treatment (-S9)): no increase in mutation frequency | TK6 assay result (mutant frequency increase, judgment) (4h treatment (-S9), listed as 4-nitroanthranilic acid): negative | TK mutation assay, Long term (24 h, without S9): Pos | TK6 assay result (mutant frequency increase, judgment) (24h treatment (-S9)): statistically significant increase in mutation frequency | TK6 assay result (mutant frequency increase, judgment) (24h treatment (-S9), listed as 4-nitroanthranilic acid): positive | %SG [1]: 68.7% | Mut. freq. (×10-6) N-MF [1]: 1.8 ×10-6 | Mut. freq. (×10-6) S-MF [1]: 3.9 ×10-6 | Mut. freq. (×10-6) T-MF [1]: 5.6 ×10-6 | %SG [2]: 61.0% | Mut. freq. (×10-6) N-MF [2]: 3.1 ×10-6 | Mut. freq. (×10-6) S-MF [2]: 4.8 ×10-6 | Mut. freq. (×10-6) T-MF [2]: 7.9 ×10-6 | %SG [3]: 63.1% | Mut. freq. (×10-6) N-MF [3]: 2.6 ×10-6 | Mut. freq. (×10-6) S-MF [3]: 4.4 ×10-6 | Mut. freq. (×10-6) T-MF [3]: 7.0 ×10-6 | %SG [4]: 72.4% | Mut. freq. (×10-6) N-MF [4]: 3.0 ×10-6 | Mut. freq. (×10-6) S-MF [4]: 7.8 ×10-6 | Mut. freq. (×10-6) T-MF [4]: 10.7 ×10-6 | %SG [5]: 57.1% | Mut. freq. (×10-6) N-MF [5]: 4.1 ×10-6 | Mut. freq. (×10-6) S-MF [5]: 5.5 ×10-6 | Mut. freq. (×10-6) T-MF [5]: 9.7 ×10-6 | %SG [6]: 68.5% | Mut. freq. (×10-6) N-MF [6]: 4.4 ×10-6 | Mut. freq. (×10-6) S-MF [6]: 9.5 ×10-6 | Mut. freq. (×10-6) T-MF [6]: 13.9 ×10-6 | Dunnett type test, test statistic [7]: 2.990 | Trend test, test statistic [7]: 4.178 | %SG [8]: 38.9% | Mut. freq. (×10-6) N-MF [8]: 6.7 ×10-6 | Mut. freq. (×10-6) S-MF [8]: 4.3 ×10-6 | Mut. freq. (×10-6) T-MF [8]: 10.9 ×10-6 | %SG [9]: 40.2% | Mut. freq. (×10-6) N-MF [9]: 6.1 ×10-6 | Mut. freq. (×10-6) S-MF [9]: 4.1 ×10-6 | Mut. freq. (×10-6) T-MF [9]: 10.3 ×10-6 | %SG [10]: 44.7% | Mut. freq. (×10-6) N-MF [10]: 4.6 ×10-6 | Mut. freq. (×10-6) S-MF [10]: 3.7 ×10-6 | Mut. freq. (×10-6) T-MF [10]: 8.4 ×10-6 | %SG [11]: 49.2% | Mut. freq. (×10-6) N-MF [11]: 5.5 ×10-6 | Mut. freq. (×10-6) S-MF [11]: 5.3 ×10-6 | Mut. freq. (×10-6) T-MF [11]: 10.7 ×10-6 | %SG [12]: 37.9% | Mut. freq. (×10-6) N-MF [12]: 6.4 ×10-6 | Mut. freq. (×10-6) S-MF [12]: 3.9 ×10-6 | Mut. freq. (×10-6) T-MF [12]: 10.3 ×10-6 | %SG [13]: 43.4% | Mut. freq. (×10-6) N-MF [13]: 6.4 ×10-6 | Mut. freq. (×10-6) S-MF [13]: 4.9 ×10-6 | Mut. freq. (×10-6) T-MF [13]: 11.3 ×10-6 | %SG [14]: 60.5% | Mut. freq. (×10-6) N-MF [14]: 3.6 ×10-6 | Mut. freq. (×10-6) S-MF [14]: 5.5 ×10-6 | Mut. freq. (×10-6) T-MF [14]: 9.0 ×10-6 | %SG [15]: 56.6% | Mut. freq. (×10-6) N-MF [15]: 3.8 ×10-6 | Mut. freq. (×10-6) S-MF [15]: 4.9 ×10-6 | Mut. freq. (×10-6) T-MF [15]: 8.7 ×10-6 | %SG [16]: 46.7% | Mut. freq. (×10-6) N-MF [16]: 4.2 ×10-6 | Mut. freq. (×10-6) S-MF [16]: 3.7 ×10-6 | Mut. freq. (×10-6) T-MF [16]: 7.9 ×10-6 | %SG [17]: 48.9% | Mut. freq. (×10-6) N-MF [17]: 4.3 ×10-6 | Mut. freq. (×10-6) S-MF [17]: 4.2 ×10-6 | Mut. freq. (×10-6) T-MF [17]: 8.5 ×10-6 | %SG [18]: 52.7% | Mut. freq. (×10-6) N-MF [18]: 3.7 ×10-6 | Mut. freq. (×10-6) S-MF [18]: 4.1 ×10-6 | Mut. freq. (×10-6) T-MF [18]: 7.8 ×10-6 | %SG [19]: 65.9% | Mut. freq. (×10-6) N-MF [19]: 3.0 ×10-6 | Mut. freq. (×10-6) S-MF [19]: 5.9 ×10-6 | Mut. freq. (×10-6) T-MF [19]: 9.0 ×10-6 | Dunnett type test, test statistic (Short-term treatment with metabolic activation): 0.732 | Dunnett type test, test statistic (Short-term treatment without metabolic activation): 0.791 | MF (24 h, -S9 mix, 173.70 μg/mL): 5.6 | MF (24 h, -S9 mix, 277.90 μg/mL): 7.9 | MF (24 h, -S9 mix, 444.70 μg/mL): 7.0 | MF (24 h, -S9 mix, 711.5 μg/mL): 10.7 | MF (24 h, -S9 mix, 1138.4 μg/mL): 9.7 | MF (24 h, -S9 mix, 1821.4 μg/mL): 13.9 | MF [8]: 10.9 | MF [9]: 10.3 | MF (Short treatment, +S9 mix, dose 444.7 μg/mL): 8.4 | MF (Short treatment, +S9 mix, dose 711.5 μg/mL): 10.7 | MF (Short treatment, +S9 mix, dose 1138.4 μg/mL): 10.3 | MF (Short treatment, +S9 mix, dose 1821.4 μg/mL): 11.3 | MF [14]: 9.0 | MF [15]: 8.7 | MF [16]: 7.9 | MF [17]: 8.5 | MF [18]: 7.8 | MF [19]: 9.0 | TK mutation assay, With S9 (short-term 4 h, with rat liver S9): Neg | TK mutation assay, Without S9 (short-term 4 h, without S9): Neg

From PMC7937321 (Genes and Environment, 2021)
